Columns and labels:
[1] = target: T1, Beta-2 adrenergic receptor (Homo sapiens, UniProt P07550); test: Antagonist activity at beta-2 AR (unknown origin) overexpressed in HEK293 cell membrane assessed as inhibition of ISO-induced cAMP production at EC80 preincubated for 15 mins followed by agonist addition measured after 30 mins by TR-FRET assay
[2] = target: T1, Beta-2 adrenergic receptor; test: Displacement of [3H]-DHA from beta-2 AR (unknown origin) overexpressed in HEK293 cell membrane assessed as inhibition constant incubated for 90 mins by liquid scintillation analysis
[3] = target: T1, Beta-2 adrenergic receptor; test: Displacement of [3H]-DHA from beta-2 AR (unknown origin) overexpressed in HEK293 cell membrane assessed as dissociation constant (K) incubated for 90 mins by liquid scintillation analysis

T1 sequence (P07550 whole entry): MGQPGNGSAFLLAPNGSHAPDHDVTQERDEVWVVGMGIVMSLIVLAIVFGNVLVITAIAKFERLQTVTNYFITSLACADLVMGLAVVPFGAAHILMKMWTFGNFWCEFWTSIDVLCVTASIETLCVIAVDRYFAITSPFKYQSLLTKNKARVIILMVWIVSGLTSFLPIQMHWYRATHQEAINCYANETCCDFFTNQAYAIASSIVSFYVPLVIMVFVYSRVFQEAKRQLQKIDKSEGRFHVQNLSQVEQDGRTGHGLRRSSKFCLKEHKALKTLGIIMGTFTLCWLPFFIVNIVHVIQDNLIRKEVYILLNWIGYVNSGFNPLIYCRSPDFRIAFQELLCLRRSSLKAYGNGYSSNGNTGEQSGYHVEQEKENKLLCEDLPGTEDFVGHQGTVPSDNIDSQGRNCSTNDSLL

| IC50 [1] [nM] | Ki [2] [nM] | Kd [3] [nM] | SMILES |
| --- | --- | --- | --- |
| 4790 | 389 | 589 | CC(C)NC[C@H](O)COc1ccc(CCCCN=[N+]=[N-])cc1 |
| 3980 |  |  | CC(C)NC[C@H](O)COc1ccc(CCCN=[N+]=[N-])cc1 |

Reference: ChEMBL document CHEMBL5523731, “Bitopic Ligands Support the Presence of a Metastable Binding Site at the β2 Adrenergic Receptor” (J Med Chem, 2024)
